Source: patent US20100160176A1, “RAT GENE […] OF DRUG TRANSPORTERS, CYTOCHROME P450s, TRANSFERASES AND NUCLEAR […] FOR PREDICTING DRUG EFFECTS” (NOAB BIOD[…]., priority 2008, published 2010)
Like-named read-outs stand apart in the source and are kept apart here.

Experiments:
ABCD2 gene expression = assay: Rat DTEx microarray gene expression profiling in drug-treated female rat primary hepatocytes (FIG. 109): ABCD2; assay type: in vitro ADME
Method: (§1) Images were analysed using QuantArray software (GSI Lumonics Inc.).

ABCC3 gene expression = assay: Rat DTEx microarray gene expression profiling in drug-treated female rat primary hepatocytes (FIG. 109): ABCC3; assay type: in vitro ADME
Method: as §1

CYP3A1 gene expression = assay: Rat DTEx microarray gene expression profiling in drug-treated female rat primary hepatocytes (FIG. 109): CYP3A1; conditions: female rat primary hepatocytes treated with the drug
Source text: The total RNA component of the nucleic acid lysate was isolated according to the manufacturer's instructions.

[1] = female rat primary hepatocytes treated with the drug, FIG. 109

Row | Compound | effect on ABCD2 gene expression (normalized fluorescence intensity dendrogram plot) (ABCD2 gene expression) | effect on ABCC3 gene expression (normalized fluorescence intensity dendrogram plot) (ABCC3 gene expression) | effect on CYP3A1 gene expression (normalized fluorescence intensity dendrogram plot) (CYP3A1 gene expression) | effect on ABCD2 gene expression (normalized fluorescence intensity dendrogram plot) (ABCD2 gene expression; [1]) | effect on ABCC3 gene expression (normalized fluorescence intensity dendrogram plot) (ABCC3 gene expression; [1])
1 | C[C@@H]1C[C@H]2[C@@H]3CCC4=CC(=O)C=C[C@]4(C)[C@@]3(F)[C@@H](O)C[C@]2(C)[C@@]1(O)C(=O)CO [DEX, dexamethasone] | suppress | induces gene expression |  |  | 
2 | CC(=O)[C@H]1[C@H](C#N)C[C@H]2[C@@H]3CC=C4C[C@@H](O)CC[C@]4(C)[C@H]3CC[C@@]21C [PCN] |  |  | induce | suppress | suppresses gene expression
